According to patent EP0352652B1, “Use of imexone as an immunosuppressive agent” (BOEHRINGER MANNHEIM GMBH, priority 1988, dated 1990):

How the values were obtained:
[1] = tested on: Methylcholanthren-induzierte Fibrosarkomzellinie (MethA); assay: Tumour growth inhibition assay (TGI), spontaneous proliferation of MethA cells, [3H]-thymidine incorporation; format: cell-based, CB6F₁-Mäusen
Description: Die Methylcholanthren-induzierte Fibrosarkomzellinie (MethA) wurde aus der eigenen Tumorzellbank erhalten und intraperitoneal in CB6F₁-Mäusen passagiert.
1 x 10⁴ MethA-Zellen werden mit der zu testenden Imexonkonzentration in DMEM-Medium über 48 h inkubiert. 3 h vor Ablauf der Inkubationszeit wird mit [³H]-Thymidin gepulst, geerntet und ausgewertet wie bei Beispiel 2 beschrieben.

[2] = tested on: Milzzellen; assay: Concanavalin A (ConA)-induced proliferation of murine splenocytes (LTT), [3H]-thymidine incorporation; format: cell-based, CB6F₁-Mäusen; conditions: for LTT (Splenozyten, ConA) ^3H-TdR cpm (n=6) x̄: 0,5 µg/ml ConA
Description: Milzzellen (4 x 10⁵) von CB6F₁-Mäusen werden mit 0,5 µg/ml ConA in Mikrotiterplatten (Nunc GmbH, Wiesbaden, FRG) und verschiedenen Konzentrationen von Imexon in 6-fach Ansätzen für insgesamt 48 h inkubiert. 5 h vor Ablauf der Inkubationszeit werden die Kulturen mit [³H]-Thymidin gepulst und anschließend auf Glasfiberfilterplattchen mittels eines Multisample Harvester (Skatron A.S., Lier, Norwegen) geerntet. Die Filterplättchen werden getrocknet, und die Radioaktivität in einem Packard Szintillationsspektrometer bestimmt.

[3] = tested on: humaner Lymphozyten; assay: Phytohaemagglutinin (PHA)-induced proliferation of human lymphocytes (LTT), [3H]-thymidine incorporation; format: cell-based
Description: 1 ml humanes Vollblut wird mit 500 µg PHA-Lösung (500 µg/ml) und 48 ml DMEM-Mediun verdünnt. Jeweils 200 µl dieses Ansatzes werden mit 20 µl der zu testenden Imexonkonzentration in 6-fach-Ansätzen gemischt und 4 Tage inkubiert. Nach Pulsen mit [³H]-Thymidin wird weitere 24 h inkubiert, geerntet und ausgewertet wie bei Beispiel 2 beschrieben.

[4] = tested on: humane B-Lymphozyten; assay: BCGF-dependent proliferation of human B lymphocytes, [3H]-thymidine incorporation; format: cell-based
Description: Die Anreicherung von peripheren humanen B-Zellen und der BCGF-Proliferationsassay wurden wie folgt durchgeführt (vgl. a. Eur. J. Immun. 16, 350 (1986)): Angereicherte humane B-Lymphozyten werden zweimal gewaschen mit komplettiertem RPMI 1640 Medium (Streptomycin/Penicillin, L-Glutamin, 2-Mercaptoethanol, FCS) und auf 3 x 10⁵ Zellen/ml eingestellt. […] dieser Suspension werden jeweils pro Well in Mikrotiterplatten pipettiert. Als Pseudoantigen werden […] einer Lösung von HFCµS-IgG (300 µg/ml) zugegeben und als Wachstumsfaktor 20 µl BCGF (Cellular Products Incorporated) hinzugefügt. Dazu werden 20 µl der zu testenden Verbindung in 10facher Konzentration pipettiert. Die Kulturen werden insgesamt 140 h bei 37°, 5 % CO₂ und 95 % relativen Luftfeuchtigkeit inkubiert. 16 h vor Ablauf der Inkubationszeit wird jede Kultur mit 1 µ Ci einer [³H]-Thymidin-Lösung gepulst. Am Ende des Versuches werden die Zellen mit einem Harvester geerntet und die eingebaute Radioaktivität in einem Flüssigszintillationszähler bestimmt.

[5] = tested on: Mäusestamm MRL 1pr/1pr; assay: Autoimmune disease model in MRL mice (lymphadenomas, antinuclear autoantibodies), prophylactic and therapeutic treatment; format: in vivo, Maus
Excerpt: B. Synthese von antinukleâren Autoantikörpern. Zur Untersuchung des prophylaktischen Effektes von Imexon auf die Entwicklung dieser Symptome wurden 11 Wochen alte MRL Mäuse einmal täglich intraperitoneal mit den angegebenen Dosierungen Imexon und Cyclophosphamid behandelt. Dokumentiert wurden die Zahl der Lymphadenome und die Konzentration antinukleärer Antikörper. Bei der Untersuchung zur therapeutischen Potenz von Imexon wurden MRL Mäuse, […] jedes Tier mindestens ein Lymphadenom […] an Imexon und Cyclophosphamid behandelt. Die Meßparameter waren wiederum Zahl der Lymphadenome sowie Autoantikö[…].

[6] = tested on: Walker-Sarkoma 256; conditions: rats, after application of Imexon; cited from earlier work
[7] = tested on: Leukozyten; Antikörper bildende Milzzellen; conditions: after application of Imexon; cited from earlier work
[8] = relative to suppression of BCGF-induced B-cell proliferation, not or only at these concentrations
[9] = Homo sapiens, Lymphocyte, 140 h, read-out: BCGF (humane B-Lym-phozyten) %Hemmung
[10] = prophylactic, 11-week-old MRL mice, once daily intraperitoneal
[11] = therapeutic, lymphoma-bearing MRL mice (ca. 14 weeks old), once daily

Compound: N=C1NC(=O)N2CC12 (stereo not drawn) [Imexon, 4-Imino-1,3-diazabicyclo-(3.1.0)-hexan-2-on]
- TGI (MethA) ^3H-TdR cpm (n=6) x̄ ([1]; Imexon 0.1 µg/ml, 48 h): 31722 cpm
- TGI (MethA) ^3H-TdR cpm (n=6) x̄ ([1]; Imexon 0.3 µg/ml, 48 h): 37593 cpm
- TGI (MethA) ^3H-TdR cpm (n=6) x̄ ([1]; Imexon 1 µg/ml, 48 h): 35475 cpm
- TGI (MethA) ^3H-TdR cpm (n=6) x̄ ([1]; Imexon 3 µg/ml, 48 h): 35473 cpm
- TGI (MethA) ^3H-TdR cpm (n=6) x̄ ([1]; Imexon 10 µg/ml, 48 h): 21913 cpm
- TGI (MethA) ^3H-TdR cpm (n=6) x̄ ([1]; Imexon 30 µg/ml, 48 h): 911 cpm
- TGI (MethA) ^3H-TdR cpm (n=6) x̄ ([1]; Imexon 100 µg/ml, 48 h): 534 cpm
- inhibition at 0.1 µg/mL ([1]; Meth-A, 48 h, Imexon 0.1 µg/ml, read-out: TGI (MethA) %Hemmung): 7%
- inhibition at 0.3 µg/mL ([1]; Meth-A, 48 h, Imexon 0.3 µg/ml, read-out: TGI (MethA) %Hemmung): -11%
- inhibition at 1 µg/mL ([1]; Meth-A, 48 h, Imexon 1 µg/ml, read-out: TGI (MethA) %Hemmung): -4%
- inhibition at 3 µg/mL ([1]; Meth-A, 48 h, Imexon 3 µg/ml, read-out: TGI (MethA) %Hemmung): -4%
- inhibition at 10 µg/mL ([1]; Meth-A, 48 h, Imexon 10 µg/ml, ** p < 0.001, read-out: TGI (MethA) %Hemmung): 35%
- inhibition at 30 µg/mL ([1]; Meth-A, 48 h, Imexon 30 µg/ml, ** p < 0.001, read-out: TGI (MethA) %Hemmung): 97%
- inhibition at 100 µg/mL ([1]; Meth-A, 48 h, Imexon 100 µg/ml, ** p < 0.001, read-out: TGI (MethA) %Hemmung): 98%
- minimal effective concentration ([1]; Meth-A, 48 h, spontaneous proliferation, read-out: Konzentration, ab der die Spontanproliferation von MethA-Sarkomzellen signifikant unterdrückt ist): > 10 µg/mL
- höhere Konzentrationen, bei denen die spontane Proliferation von MethA beeinflußt wird [1, 8]: 10-30 fach
- LTT (Splenozyten, ConA) ^3H-TdR cpm (n=6) x̄ ([2]; Imexon 0.1 µg/ml, 48 h): 109717 cpm
- LTT (Splenozyten, ConA) ^3H-TdR cpm (n=6) x̄ ([2]; Imexon 0.3 µg/ml, 48 h): 134032 cpm
- LTT (Splenozyten, ConA) ^3H-TdR cpm (n=6) x̄ ([2]; Imexon 1 µg/ml, 48 h): 119120 cpm
- LTT (Splenozyten, ConA) ^3H-TdR cpm (n=6) x̄ ([2]; Imexon 3 µg/ml, 48 h): 118487 cpm
- LTT (Splenozyten, ConA) ^3H-TdR cpm (n=6) x̄ ([2]; Imexon 10 µg/ml, 48 h): 24895 cpm
- LTT (Splenozyten, ConA) ^3H-TdR cpm (n=6) x̄ ([2]; Imexon 30 µg/ml, 48 h): 2509 cpm
- LTT (Splenozyten, ConA) ^3H-TdR cpm (n=6) x̄ ([2]; Imexon 100 µg/ml, 48 h): 903 cpm
- inhibition at 0.1 µg/mL ([2]; Splenocyte, 48 h, Imexon 0.1 µg/ml, read-out: LTT (Splenozyten, ConA) %Hemmung): 0%
- inhibition at 0.3 µg/mL ([2]; Splenocyte, 48 h, Imexon 0.3 µg/ml, read-out: LTT (Splenozyten, ConA) %Hemmung): -22%
- inhibition at 1 µg/mL ([2]; Splenocyte, 48 h, Imexon 1 µg/ml, read-out: LTT (Splenozyten, ConA) %Hemmung): -8%
- inhibition at 3 µg/mL ([2]; Splenocyte, 48 h, Imexon 3 µg/ml, read-out: LTT (Splenozyten, ConA) %Hemmung): -8%
- inhibition at 10 µg/mL ([2]; Splenocyte, 48 h, Imexon 10 µg/ml, ** p < 0.001, read-out: LTT (Splenozyten, ConA) %Hemmung): 77%
- inhibition at 30 µg/mL ([2]; Splenocyte, 48 h, Imexon 30 µg/ml, ** p < 0.001, read-out: LTT (Splenozyten, ConA) %Hemmung): 98%
- inhibition at 100 µg/mL ([2]; Splenocyte, 48 h, Imexon 100 µg/ml, ** p < 0.001, read-out: LTT (Splenozyten, ConA) %Hemmung): 99%
- minimal effective concentration ([2]; Splenocyte, 48 h, induced by ConA, read-out: Konzentrationen, bei denen die Lymphozytenproliferation signifikant gehemmt wird): > 10 µg/mL
- höhere Konzentrationen, bei denen die ConA-induzierte Lymphozytenproliferation beeinflußt wird [2, 8]: 10-30 fach
- inhibition at 0.1 µg/mL ([3]; Homo sapiens, Lymphocyte, Imexon 0.1 µg/ml, read-out: LTT (Splenozyten, PHA) %Hemmung): 5%
- inhibition at 0.3 µg/mL ([3]; Homo sapiens, Lymphocyte, Imexon 0.3 µg/ml, read-out: LTT (Splenozyten, PHA) %Hemmung): -3%
- inhibition at 1 µg/mL ([3]; Homo sapiens, Lymphocyte, Imexon 1 µg/ml, read-out: LTT (Splenozyten, PHA) %Hemmung): -11%
- inhibition at 3 µg/mL ([3]; Homo sapiens, Lymphocyte, Imexon 3 µg/ml, read-out: LTT (Splenozyten, PHA) %Hemmung): 19%
- inhibition at 10 µg/mL ([3]; Homo sapiens, Lymphocyte, Imexon 10 µg/ml, ** p < 0.001, read-out: LTT (Splenozyten, PHA) %Hemmung): 89%
- inhibition at 30 µg/mL ([3]; Homo sapiens, Lymphocyte, Imexon 30 µg/ml, ** p < 0.001, read-out: LTT (Splenozyten, PHA) %Hemmung): 99%
- inhibition at 100 µg/mL ([3]; Homo sapiens, Lymphocyte, Imexon 100 µg/ml, ** p < 0.001, read-out: LTT (Splenozyten, PHA) %Hemmung): 99%
- minimal effective concentration ([3]; Homo sapiens, Lymphocyte, induced by PHA, read-out: Konzentrationen, bei denen die Lymphozytenproliferation signifikant gehemmt wird): > 10 µg/mL
- LTT (Splenozyten, PHA) ^3H-TdR cpm (n=6) x̄ ([3]; Imexon 0.1 µg/ml): 41849 cpm
- LTT (Splenozyten, PHA) ^3H-TdR cpm (n=6) x̄ ([3]; Imexon 0.3 µg/ml): 45542 cpm
- LTT (Splenozyten, PHA) ^3H-TdR cpm (n=6) x̄ ([3]; Imexon 1 µg/ml): 49348 cpm
- LTT (Splenozyten, PHA) ^3H-TdR cpm (n=6) x̄ ([3]; Imexon 3 µg/ml): 35850 cpm
- LTT (Splenozyten, PHA) ^3H-TdR cpm (n=6) x̄ ([3]; Imexon 10 µg/ml): 4724 cpm
- LTT (Splenozyten, PHA) ^3H-TdR cpm (n=6) x̄ ([3]; Imexon 30 µg/ml): 573 cpm
- LTT (Splenozyten, PHA) ^3H-TdR cpm (n=6) x̄ ([3]; Imexon 100 µg/ml): 585 cpm
- höhere Konzentrationen, bei denen die PHA-induzierte Lymphozytenproliferation beeinflußt wird [3, 8]: 10-30 fach
- Proliferation von B-Lymphozyten [4]: dosisabhängig hemmt
- inhibition at 0.1 µg/mL [4, 9]: 13%
- inhibition at 0.3 µg/mL [4, 9]: 24%
- inhibition at 1 µg/mL [4, 9]: 62%
- inhibition at 3 µg/mL [4, 9]: 85%
- inhibition at 10 µg/mL [4, 9]: 90%
- inhibition at 30 µg/mL [4, 9]: 89%
- inhibition at 100 µg/mL [4, 9]: 90%
- minimal effective concentration ([4]; Homo sapiens, Lymphocyte, 140 h, read-out: Konzentration, bei der die BCGF-induzierte B-Zellproliferation signifikant und spezifisch supprimiert wird): 1 µg/mL
- BCGF (humane B-Lym-phozyten) ^3H-TdR cpm (n=6) x̄ ([4]; Imexon 0.1 µg/ml, 140 h): 4847 cpm
- BCGF (humane B-Lym-phozyten) ^3H-TdR cpm (n=6) x̄ ([4]; Imexon 0.3 µg/ml, 140 h): 4201 cpm
- BCGF (humane B-Lym-phozyten) ^3H-TdR cpm (n=6) x̄ ([4]; Imexon 1 µg/ml, 140 h): 2096 cpm
- BCGF (humane B-Lym-phozyten) ^3H-TdR cpm (n=6) x̄ ([4]; Imexon 3 µg/ml, 140 h): 831 cpm
- BCGF (humane B-Lym-phozyten) ^3H-TdR cpm (n=6) x̄ ([4]; Imexon 10 µg/ml, 140 h): 574 cpm
- BCGF (humane B-Lym-phozyten) ^3H-TdR cpm (n=6) x̄ ([4]; Imexon 30 µg/ml, 140 h): 617 cpm
- BCGF (humane B-Lym-phozyten) ^3H-TdR cpm (n=6) x̄ ([4]; Imexon 100 µg/ml, 140 h): 562 cpm
- Verträglichkeit ([5]; MRL mice, once daily intraperitoneal): sehr guter Verträglichkeit
- Konzentration DNA spezifischer Antikörper [5, 10]: erniedrigt
- Zahl spontan entstehender Lymphadenome [5, 10]: erniedrigt
- Titer der Autoantikörper [5, 11]: nimmt dosisabhängig ab
- Zahl der Lymphadenome [5, 11]: nimmt dosisabhängig ab
- Tumorwachstum von Walker-Sarkoma 256 [6]: Hemmung des Tumorwachstums
- Leukozyten [7]: Anstieg der Leukozyten
- Zahl der Antikörper bildenden Milzzellen [7]: Anstieg der Zahl der Antikörper bildenden Milzzellen
